According to article PMC9315496, “A Comparison of the Photophysical, Electrochemical and Cytotoxic Properties of meso-(2-, 3- and 4-Pyridyl)-BODIPYs and Their Derivatives” (Sensors (Basel, Switzerland), 2022):
Where two headings read alike, the source gives them in different places. Marks after values point to notes of the source that are not given here.

How the values were obtained:
[1] = UV-vis absorption and emission spectroscopy, relative fluorescence quantum yields; assay type: physicochemical; conditions: for bathochromic shift of maximum absorption wavelength upon methylation: acetonitrile, experimental; for λabs / λem: room temperature; for Φf (relative fluorescence quantum yield): standard Ru(bpy)Cl2.6H2O (Φf = 0.028) in H2O, λexc = 436 nm
Method: UV−vis absorption spectra were collected on a Varian Cary 50 Bio spectrophotometer. Emission spectra were obtained on a PerkinElmer LS55 spectrophotometer, at room temperature. Spectrophotometric grade solvents and quartz cuvettes (1 cm path length) were used. Relative fluorescence quantum yields (Φf) were calculated using rhodamine 6G (Φf = 0.86 in methanol) as reference for the neutral BODIPYs and Ru(bpy)Cl2.6H2O (Φf = 0.028 in water) as the standard for the cationic BODIPYs using the following equation: Φx = Φst × Gradx/Gradst × (ηx/ηst)^2, where the ΦX and ΦST are the quantum yields of the sample and standard, GradX and GradST are the gradients from the plot of integrated fluorescence intensity vs. absorbance, and η represents the refractive index of the solvent (x is for the sample and st for the standard).

[2] = Cyclic voltammetry; assay type: physicochemical; conditions: for E1/2ox: PF6^− counterion
Excerpt: Cyclic voltammograms were collected on a Biologic SP-300 potentiostat using a three-electrode setup with a platinum working electrode (2 mm diameter, CH Instruments), platinum counter electrode (2 mm diameter, CH Instruments), and a silver wire pseudo reference-electrode stored in 0.25 M NBu4PF6 in anhydrous acetonitrile and separated from the electrochemical cell by a glass frit. The electrochemical cell was composed of a borosilicate glass scintillation vial with a custom-machined cap. Working electrodes were polished and then pre-treated by cycling between upper and lower boundaries of the electrochemical window for the experiment in a solution containing only the electrolyte. Measurements were taken in a solution of 0.25 M recrystallized NBu4PF6 in dried and degassed anhydrous acetonitrile. BODIPYs were added to 5 mL of electrolyte solution to give a concentration of 1 mM. Each solution also contained 1 mM ferrocene as an internal reference. Solutions were sparged with N2 before each measurement.

[3] = system: HEp2 cells; test: Dark cytotoxicity, Cell Titer Blue; assay type: cell-based; conditions: Homo sapiens, HEp-2, 24 h incubation, read-out: Dark Toxicity (IC50)
Method: (§1) Human carcinoma HEp2 cells were obtained from ATCC and maintained in a 75 cm^2 flask (Chemglass) with 1× MEM (Eagle’s minimal essential medium) containing 10% FBS (fetal bovine serum) and 1% antibiotic (penicillin–streptomycin) in a humidified, 5% CO2 incubator at 37 °C. Stock solutions with a concentration of 32 mM in DMSO were prepared for each BODIPY. The stock solution was diluted to the final working concentrations with culture medium. The HEp2 cells were plated at 7500–10,000 cells per well in a Costar 96-well plate and allowed to grow for 24 h. The BODIPY stock solution was diluted to a 200 μM working solution and two-fold serial dilutions were prepared with final concentrations of 200, 100, 50, 25, 12.5, 6.25, and 0 μM. Each BODIPY was incubated for 24 h at 37 °C under 5% CO2. For the dark cytotoxicity experiments, after incubation, excess BODIPY was removed by washing the cells three times with 1× PBS (phosphate-buffered saline) and replacing with media containing 20% Cell Titer Blue (Promega, Madison, WI, USA). The cells were then incubated for additional 24 h at 37 °C under 5% CO2 and the cell toxicity was determined by fluorescence intensity at ex 570/em 615 nm using a FluoStar Optima microplate reader (BMG Labtech, Cary, NC, USA).

[4] = system: HEp2 cells; test: Phototoxicity (1.5 J/cm^2), Cell Titer Blue; assay type: cell-based; conditions: Homo sapiens, HEp-2, light or radiation study, light dose 1.5 J/cm^2
Method: as §1
For the phototoxicity experiments, after incubation the cells were exposed to a light dose of ~1.5 J/cm^2 generated using a 600 W Quartz Tungsten Halogen lamp (Newport Corporation, Irvine, CA, USA). The cells were exposed for 20 min while the 96-well plate rested on an EchoTherm chilling plate (Torrey Pines Scientific, Carlsbad, CA, USA) set to 5 °C. Following light exposure, the loading media was removed and media containing 20% Cell Titer Blue was added. After incubation for 24 h at 37 °C under 5% CO2, the cell viability was determined as described above.

[5] = cited from earlier work
[6] = vs. Fc^+/Fc, 100 mV/s, acetonitrile, 0.25 M NBu4PF6

Row | bathochromic shift of maximum absorption wavelength upon methylation [1] [nm] | E1/2ox [2, 6] | Stokes Shift ([1]; CH3CN) [nm] | ε (molar extinction coefficient) ([1]; CH3CN) | λabs ([1]; CH3CN) [nm] | λem ([1]; CH3CN) [nm] | Φf (relative fluorescence quantum yield) ([1]; CH3CN) | Stokes Shift ([1]; H2O) [nm] | ε (molar extinction coefficient) ([1]; H2O) | λabs ([1]; H2O) [nm] | λem ([1]; H2O) [nm] | Φf (relative fluorescence quantum yield) ([1]; H2O) | first reduction, more negative than the two-electron reduction in 4catPy [2] [mV] | second reduction, more negative than the two-electron reduction in 4catPy [2] [mV] | E1/2red, first one-electron reduction [2, 6] [V] | E1/2red, second one-electron reduction [2, 6] [V] | SMILES | IC50 [3] [µM] | IC50 [4] [µM] | further results
1 | 8 | +0.89 V |  |  |  |  |  |  |  |  |  |  |  |  |  |  | CC1=CC(C)=[N+]2C1=C(c1cc[n+](C)cc1)c1c(C)cc(C)n1[B-]2(F)F [4catPy] | > 200 | > 100 | E1/2red, two-electron reduction to doubly reduced state [2, 6]: −1.06 ^e V; Stokes Shift ([5]; CH3CN): 87 nm; Φf (fluorescence quantum yield) ([5]; CH3CN): 0.019; ε (molar extinction coefficient) ([5]; CH3CN): 26,000 M^−1 cm ^−1; λabs ([5]; CH3CN): 509 nm; λem ([5]; CH3CN): 596 nm; Stokes Shift ([5]; H2O): 91 nm; Φf (fluorescence quantum yield) ([5]; H2O): 0.004; ε (molar extinction coefficient) ([5]; H2O): 31,600 M^−1 cm ^−1; λabs ([5]; H2O): 509 nm; λem ([5]; H2O): 600 nm
2 | 18 | ~+0.99 ^a V | 24 | 65,800 M^−1 cm ^−1 | 520 | 544 | 0.13 ^b | 22 | 52,380 M^−1 cm ^−1 | 520 | 542 | 0.001 ^b | 30 | 230 | −1.09 | −1.29 | CC1=CC(C)=[N+]2C1=C(c1cccc[n+]1C)c1c(C)cc(C)n1[B-]2(F)F [2catPy, 1,3,5,7-Tetramethyl-8-(N-methyl-2-pyridyl)-BODIPY Iodide] | > 200 | > 100 | oxidation potential shift positive compared with 4catPy and 3catPy [2]: 100 mV
3 | 8 | +0.89 V | 22 | 65,460 M^−1 cm ^−1 | 510 | 532 | 0.006 | 20 | 37,320 M^−1 cm ^−1 | 510 | 530 | 0.005 ^b | 200 | 480 | −1.26 | −1.54 | CC1=CC(C)=[N+]2C1=C(c1ccc[n+](C)c1)c1c(C)cc(C)n1[B-]2(F)F [3catPy, 1,3,5,7-Tetramethyl-8-(N-methyl-3-pyridyl)-BODIPY Iodide] | > 200 | > 100 | Φf (relative fluorescence quantum yield) ([1]; CH3CN, listed as 3catPy (I^−)): 0.006 ^b
